Test results taken from US20120149735A1, “1,4-Dihydropyridine Derivatives and Their Uses” (CENTRE HOSPITALIER REGIONAL UNIVERSITAIRE DE LILLE, priority 2009, published 2012).
Where two headings read alike, the source gives them in different places.

Experiments:
[1] = target: T1, hCB2 cannabinoid receptor (Homo sapiens, UniProt P34972); experiment: Competition binding assay, hCB2 membranes, [3H]-CP-55,940
T1 construct: purchased PerkinElmer (Belgium)
Description: hCB1 and hCB2 membranes were purchased from PerkinElmer (Belgium). […] Glass fiber filters were purchased from Whatman (Maidstone, U.K.), while Aqualuma was from PerkinElmer (Schaesberg, The Netherlands). Stock solutions of the compounds were prepared in DMSO and further diluted […] with the binding buffer to the desired concentration. Final DMSO concentrations in the assay were less than 0.1%.
The test compounds were present at varying concentrations and the non-specific binding was determined in the presence of 10 μM HU-210. After 1 h the incubation was stopped and the solutions were rapidly filtered through 0.5% PEI pretreated GF/B glass fiber filters on a M-48T Brandell cell harvester and washed twice with 5 mL ice-cold binding buffer without serum albumin. […] Assays were performed at least in triplicate.
(§1) IC50 and EC50 values were determined by non-linear regression analysis performed using the GraphPad prism 4.0 program (GraphPad Software, San Diego). The Ki values (expressed as pKi) were calculated based on the Cheng-Prusoff equation: Ki=IC50/(1+L/Kd). Statistical signification of [^35S]-GTPγS assay results was assessed using an one-way ANOVA followed by a Dunett post-test.

hCB2 receptor = target: T2, hCB2 receptor (Homo sapiens, UniProt P34972); experiment: [35S]-GTPγS binding assay (CB2 functional activity assay); assay type: biochemical; conditions: for EC50: [35S]-GTPγS binding, hCB2
T2 construct: purchased PerkinElmer (Belgium)
Description: The Emax value is determined by a CB2 functional activity assay (19, 20).
[^35S]-GTPγS binding Assays
[^35S]-GTPγS (1173 Ci/mmol) was purchased from Amersham (Roosendaal, The Netherlands). The binding experiments were performed at 30° C. in plastic tubes containing 40 μg protein in 0.5 mL (final volume) of binding buffer (50 mM Tris-HCl, 3 mM MgCl2, 1 mM EDTA, 100 mM NaCl, 0.1% bovine serum albumin, pH 7.4) supplemented with 20 μM GDP.
The assay was initiated by the addition of [^35S]-GTPγS (0.05 nM, final concentration). The tubes were incubated for 1 h. The incubations were terminated by the addition of 5 mL ice-cold washing buffer (50 mM Tris-HCl, 3 mM MgCl2, 1 mM EDTA, 100 mM NaCl). The suspension was immediately filtered through GF/B filters using a 48-well Brandell cell harvester and washed twice with the same ice-cold buffer. The radioactivity on the filters was counted as mentioned above. Assays were performed in triplicate.
as §1

TNBS-induced colitis = TNBS-induced colitis in mice; assay type: in vivo, C57B16 mice; conditions: for MPO activity in colon (neutrophils content): TNBS only 20±5; for TNF-alpha mRNA expression in colon: TNBS only 26±8; for IL-1beta mRNA expression in colon: TNBS only 1610±1041; for colitis macroscopic score (Wallace criteria, scale 0 to 10): intraperitoneally once daily from 3 days before TNBS, killed 3 days after TNBS, TNBS only 3.1±0.3; for histological score (Ameho criteria, scale 0 to 6): intraperitoneally once daily, TNBS only 3.7±1
[2] = hCB2 membranes, [3H]-CP-55,940 (1 nM), 30° C., 1 h, read-out: Ki CB2
[3] = read-out: binding affinity (Ki) at the CB2 receptor
[4] = CB2 functional activity assay, basal = 100%, read-out: Emax, bound stated
[5] = percentage of stimulation of [35S]-GTPγS binding, basal value set at 100%, read-out: Functional activity at CB2 EMax

T2 sequence (P34972 whole entry): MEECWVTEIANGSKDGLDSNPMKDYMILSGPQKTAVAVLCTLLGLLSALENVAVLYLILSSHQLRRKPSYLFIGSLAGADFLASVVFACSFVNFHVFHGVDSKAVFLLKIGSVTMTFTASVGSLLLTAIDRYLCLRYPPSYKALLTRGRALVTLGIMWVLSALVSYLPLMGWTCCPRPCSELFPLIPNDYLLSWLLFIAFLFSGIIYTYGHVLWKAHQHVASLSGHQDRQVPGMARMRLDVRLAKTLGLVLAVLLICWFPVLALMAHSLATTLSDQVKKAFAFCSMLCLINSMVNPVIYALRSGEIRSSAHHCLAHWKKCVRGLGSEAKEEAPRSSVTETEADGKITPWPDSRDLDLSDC
T1 sequence (P34972 whole entry): as above

Compound | Ki [1, 2] | melting point | functional character at the CB2 receptor (agonist / inverse agonist) (hCB2 receptor; CB2 functional activity assay) | Emax (hCB2 receptor; [4]) | EC50 (hCB2 receptor) | Emax (hCB2 receptor; [5]) | other results
CCn1cc(C(=O)NC(C)C23CC4CC(CC(C4)C2)C3)c(=O)cc1-c1ccccc1 [Compound 5, (R,S)—N-3-(1-(1-Adamantyl)ethyl)-1-ethyl-4-oxo-6-phenyl-1,4-dihydropyridine-3-carboxamide] | 414 ± 61 nM | 224 °C |  |  |  |  | Ki [1, 3]: < 500 nM
CCCCCn1cc(C(=O)NC23CC4CC(CC(C4)C2)C3)c(=O)cc1-c1ccc(Cl)cc1 [Compound 18, N3-(1-Adamantyl)-6-(4-chlorophenyl)-1-pentyl-4-oxo-1,4-dihydropyridine-3-carboxamide] | 79 ± 7 nM | 190 °C |  |  |  |  | 
CCCCCn1cc(C(=O)NC2CCCc3ccccc32)c(=O)cc1-c1ccccc1 (racemic) [Compound 14, (R,S)-4-oxo-1-pentyl-6-phenyl-N-3-(1-(1,2,3,4-tetrahydronaphthyl))-1,4-dihydropyridine-3-carboxamide] | 30.9 ± 3.3 nM | 139 °C | inverse agonists | < 62% | 5.7 ± 0.7 nM | 40 ± 1% | 
CCCCCn1cc(C(=O)NCC23CC4CC(CC(C4)C2)C3)c(=O)cc1-c1ccccc1 [Compound 8, N3-((1-Adamantyl)methyl)-4-oxo-1-pentyl-6-phenyl-1,4-dihydropyridine-3-carboxamide] | 23.3 ± 1.9 nM | 154 °C |  |  |  |  | 
CCCCCn1cc(C(=O)N[C@@H]2CCCc3ccccc32)c(=O)cc1-c1ccccc1 [Compound 15, (R)-4-oxo-1-pentyl-6-phenyl-N-3-(1-(1,2,3,4-tetrahydronaphthyl))-1,4-dihydropyridine-3-carboxamide] | 10.1 ± 1.1 nM | 139 °C | inverse agonists | < 62% | 1.9 ± 0.4 nM | 42 ± 2% | 
CC(NC(=O)c1cn(-c2ccccc2)c(-c2ccccc2)cc1=O)C12CC3CC(CC(C3)C1)C2 [Compound 7, (R,S)—N-3-(1-(1-Adamantyl)ethyl)-1,6-diphenyl-4-oxo-1,4-dihydropyridine-3-carboxamide] |  | > 250 °C |  |  |  |  | Ki [1, 3]: > 500 nM
CCCCCn1cc(C(=O)NC2CCCCC2)c(=O)cc1-c1ccccc1 [Compound 13, N3-(Cyclohexyl)-4-oxo-1-pentyl-6-phenyl-1,4-dihydropyridine-3-carboxamide] | 10.6 ± 1.1 nM | 120 °C | inverse agonists | < 62% | 1.9 ± 0.5 nM | 62 ± 2% | 
CCCCCn1cc(C(=O)NC23CC4CC(CC(C4)C2)C3)c(=O)cc1C [Compound 38, N3-(1-Adamantyl)-6-methyl-4-oxo-1-pentyl-1,4-dihydropyridine-3-carboxamide] | 20 ± 3 nM | 195 °C | agonists | > 135% | 5.5 ± 1.1 nM | 148 ± 2% | Ki ([1]; binding affinity (Ki) at the CB2 receptor): < 500 nM; MPO activity in colon (neutrophils content) (TNBS-induced colitis): 14±4; TNF-alpha mRNA expression in colon (TNBS-induced colitis): 18±4; IL-1beta mRNA expression in colon (TNBS-induced colitis): 385±192; colitis macroscopic score (Wallace criteria, scale 0 to 10) (TNBS-induced colitis): 1.8±0.7; histological score (Ameho criteria, scale 0 to 6) (TNBS-induced colitis): 2.5±0.8; decrease in colitis macroscopic scores (TNBS-induced colitis; vs TNBS only): 42%; decrease of MPO activity (TNBS-induced colitis; vs TNBS only): 34%
JWH-133 [reference compound] |  |  |  |  |  |  | colitis macroscopic score (Wallace criteria, scale 0 to 10) (TNBS-induced colitis): 2.1±0.6; histological score (Ameho criteria, scale 0 to 6) (TNBS-induced colitis): induced a decrease of histological scores; decrease in colitis macroscopic scores (TNBS-induced colitis; vs TNBS only): 34%
CCCCCCn1cc(C(=O)NC23CC4CC(CC(C4)C2)C3)c(=O)cc1-c1ccccc1 [Compound 12, N3-(1-Adamantyl)-1-hexyl-4-oxo-6-phenyl-1,4-dihydropyridine-3-carboxamide] | 13.5 ± 0.9 nM | 167 °C |  |  |  |  | 
CCCCCn1cc(C(=O)NN2CCCCC2)c(=O)cc1-c1ccccc1 [Compound 17, 4-oxo-1-pentyl-6-phenyl-N-3-(piperidin-1-yl)-1,4-dihydropyridine-3-carboxamide] | 92 ± 7 nM | 122 °C | inverse agonists | < 62% | 26 ± 6 nM | 48 ± 2% | 
CCCCCn1cc(C(=O)NC23CC4CC(CC(C4)C2)C3)c(=O)cc1-c1ccccc1 [Compound 11, N3-(1-Adamantyl)-4-oxo-1-pentyl-6-phenyl-1,4-dihydropyridine-3-carboxamide] | 4 ± 0.4 nM | 145 °C |  |  |  |  | 
CCCCn1cc(C(=O)NC23CC4CC(CC(C4)C2)C3)c(=O)cc1-c1ccccc1 [Compound 10, N3-(1-Adamantyl)-1-butyl-4-oxo-6-phenyl-1,4-dihydropyridine-3-carboxamide] | 18.4 ± 1.3 nM | 146 °C |  |  |  |  | 
CCCCCn1cc(C(=O)NC2CCCCC2)c(=O)cc1C(C)(C)C [Compound 21, N3-(Cyclohexyl)-6-tert-butyl-1-pentyl-4-oxo-1,4-dihydropyridine-3-carboxamide] | 29 ± 3 nM | 91 °C |  |  |  |  | 
CCCCCn1cc(C(=O)NC23CC4CC(C)(CC(C)(C4)C2)C3)c(=O)cc1-c1ccccc1 [Compound 9, N3-(1-(3,5-Dimethyl)adamantyl)-4-oxo-1-pentyl-6-phenyl-1,4-dihydropyridine-3-carboxamide] | 6.6 ± 0.7 nM | 133 °C | inverse agonists | < 62% | 5.8 ± 1.1 nM | 41 ± 2% | 
CCCCCn1cc(C(=O)NC23CC4CC(CC(C4)C2)C3)c(=O)c(I)c1C [Compound 52, N3-(1-Adamantyl)-5-iodo-6-methyl-4-oxo-1-pentyl-1,4-dihydropyridine-3-carboxamide] | 9 ± 1.6 nM |  |  |  |  |  | Ki [1, 3]: < 500 nM
CCCCCn1cc(C(=O)NC(C)C23CC4CC(CC(C4)C2)C3)c(=O)cc1-c1ccccc1 [Compound 6, (R,S)—N-3-(1-(1-Adamantyl)ethyl)-4-oxo-1-pentyl-6-phenyl-1,4-dihydropyridine-3-carboxamide] | 14.3 ± 2.1 nM | 169 °C | inverse agonists | < 62% | 6.5 ± 1.5 nM | 46 ± 3% | Ki [1, 3]: < 500 nM
CCCCCn1cc(C(=O)N[C@H]2CCCc3ccccc32)c(=O)cc1-c1ccccc1 [Compound 16, (S)-4-oxo-1-pentyl-6-phenyl-N-3-(1-(1,2,3,4-tetrahydronaphthyl))-1,4-dihydropyridine-3-carboxamide] | 369 ± 41 nM | 139 °C | inverse agonists | < 62% | 60 ± 16 nM | 48 ± 3% | 
CCCCCn1cc(C(=O)NC23CC4CC(CC(C4)C2)C3)c(=O)cc1C(C)(C)C [Compound 20, N3-(1-Adamantyl)-6-tert-butyl-1-pentyl-4-oxo-1,4-dihydropyridine-3-carboxamide] | 29 ± 3 nM |  | agonists | > 135% | 12.2 ± 2.5 nM | 212 ± 3% | MPO activity in colon (neutrophils content) (TNBS-induced colitis): 10±3; TNF-alpha mRNA expression in colon (TNBS-induced colitis): 6±1; IL-1beta mRNA expression in colon (TNBS-induced colitis): 22±11; colitis macroscopic score (Wallace criteria, scale 0 to 10) (TNBS-induced colitis): 0.8±0.4; histological score (Ameho criteria, scale 0 to 6) (TNBS-induced colitis): 1.8±0.6; decrease in colitis macroscopic scores (TNBS-induced colitis; vs TNBS only): 74%; decrease of IL-1beta level in colon (TNBS-induced colitis; vs TNBS only): 99%; decrease of MPO activity (TNBS-induced colitis; vs TNBS only): 50%; decrease of TNF-alpha level in colon (TNBS-induced colitis; vs TNBS only): 79%; inhibition of colitis microscopic score (TNBS-induced colitis; vs TNBS only): 51%
CCCCCn1cc(C(=O)NC2CCCCC2)c(=O)cc1-c1ccc(Cl)cc1 [Compound 19, 6-(4-Chlorophenyl)-N-3-cyclohexyl-4-oxo-1-pentyl-1,4-dihydropyridine-3-carboxamide] | 78 ± 9 nM | 157 °C | inverse agonists | < 62% | 22 ± 4 nM | 39 ± 2% | 
